Common to all, as to assay type: cell-based
Assay [1] deals with T1, EGFR SVD (Homo sapiens, UniProt P00533, DUP768-770).
T1 construct: expressed in transfected cells; host or cells: BaF3 (murine pro-B), retroviral pMXs-IRES-Blasticidin
The assay is described as follows: BaF3 cell proliferation assay, EGFR SVD (Table A). The conditions noted are these: potency code, 3 days, CellTiterGlo, read-out: EGFR SVD (Activity for Inhibiting EGFR). The procedure: (§1) Retroviral Production: EGFR mutants were subcloned into pMXs-IRES-Blasticidin (RTV-016, Cell Biolabs, San Diego, Calif.). Retroviral expression vector retrovirus was produced by transient transfection of HEK 293T cells with the retroviral EGFR mutant expression vector pMXs-IRES-Blasticidin (RTV-016, Cell Biolabs), pCMV-Gag-Pol vector and pCMV-VSV-G-Envelope vector. Briefly, HEK 293T/17 cells were plated in 100 mm collagen coated plate (354450, Corning Life Sciences, Tewksbury, Mass.) (4×10^5 per plate) and incubated overnight. The next day, retroviral plasmids (3 μg of EGFR mutant, 1.0 μg of pCMV-Gag-Pol and 0.5 μg pCMV-VSV-G) were mixed in 500 μl of Optimem (31985, Life Technologies). The mixture was incubated at room temperature for 5 min and then added to Optimem containing transfection reagent Lipofectamine (11668, Invitrogen) and incubated for 20 minutes. Mixture was then added dropwise to HEK 293T cells. The next day the medium was replaced with fresh culture medium and retrovirus was harvested @ 24 and 48 hrs.
(§2) Generation of EGFR mutant stable cell lines: BaF3 cells (1.5E5 cells) were infected with 1 ml of viral supernatant supplemented with 8 μg/ml polybrene by centrifuging for 30 min at 1000 rpm. Cells were placed in a 37° C. incubator overnight. Cells were then spun for 5 minutes to pellet the cells. Supernatant was removed and cells re-infected a fresh 1 ml of viral supernatant supplemented with 8 μg/ml polybrene by centrifuging for 30 min at 1000 rpm. Cells were placed in 37° C. incubator overnight. […] After 48 hours cells were selected for retroviral infection in 10 μg/ml Blasticidin for one week. Blasticidin resistant populations were washed twice in phosphate buffered saline before plating in media lacking IL-3 to select for IL-3 independent growth.
(§3) EC50 values were determined with the same application.

Assay [2] addresses T2, HER2 S310F (Homo sapiens, UniProt P04626, S310F).
T2 construct: expressed in transfected cells; host or cells: BaF3 (murine pro-B)
Nature of the assay: Activity for inhibiting HER2 (Table B), HER2 S310F. The following applies: read-out: HER2 S310F, potency code (IC50). How it is done: as §3

Assay [3] has as its target T3, EGFR WT (Homo sapiens, UniProt P00533). Nature of the assay: Activity for inhibiting EGFR (Table A), EGFR WT. The following applies: read-out: EGFR WT, potency code (IC50).
For assay [4], the target named is T4, EGFR NPH (Homo sapiens, UniProt P00533, DUP771-773).
T4 construct: expressed in transfected cells; host or cells: BaF3 (murine pro-B), retroviral pMXs-IRES-Blasticidin
Nature of the assay: BaF3 cell proliferation assay, EGFR NPH (Table A). The conditions noted are these: potency code, 3 days, CellTiterGlo, read-out: EGFR NPH (Activity for Inhibiting EGFR). The procedure: as §1, §2, §3

The target of assay [5] is T2, HER2 S310F. Nature of the assay: BaF3 cell proliferation assay, HER2 S310F (Table B). The following applies: potency code, 3 days, CellTiterGlo, read-out: HER2 S310F (Activity for Inhibiting HER2). Background: ATP-based viability assays read luminescence as a measure of living cells.
In assay [6] the target is T4, EGFR NPH. The assay is described as follows: Activity for inhibiting EGFR (Table A), EGFR NPH. The following applies: read-out: EGFR NPH, potency code (IC50).
In assay [7] the target is T5, HER2 WT (Homo sapiens, UniProt P04626). The assay is described as follows: BaF3 cell proliferation assay, HER2 WT (Table B). The conditions noted are these: potency code, 3 days, CellTiterGlo, read-out: HER2 WT (Activity for Inhibiting HER2).
Assay [8] addresses T3, EGFR WT. The assay is described as follows: BaF3 cell proliferation assay, EGFR WT (Table A). The conditions noted are these: potency code, 3 days, CellTiterGlo, read-out: EGFR WT (Activity for Inhibiting EGFR). A digest of the protocol:
(§4)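 Steps: HEK 293T transfected with pMXs-IRES-Blasticidin kinase vector plus Gag-Pol and VSV-G; virus harvested at 24 and 48 hrs; BaF3 infected twice by centrifugation, Blasticidin-selected, then grown without IL-3. Proliferation EC50 measured.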

The target in assay [9] is T1, EGFR SVD. The assay is described as follows: Activity for inhibiting EGFR (Table A), EGFR SVD. The conditions noted are these: read-out: EGFR SVD, potency code (IC50).
Assay [10] concerns the target T6, EGFR V3 (Homo sapiens, UniProt P00533, DELINS30-297G).
T6 construct: expressed in transfected cells; host or cells: BaF3 (murine pro-B), retroviral pMXs-IRES-Blasticidin
The assay is described as follows: BaF3 cell proliferation assay, EGFR V3 (Table A). The conditions noted are these: potency code, 3 days, CellTiterGlo, read-out: EGFR V3 (Activity for Inhibiting EGFR). The gist of the method: as §4

Assay [11] addresses T6, EGFR V3. The assay is described as follows: Activity for inhibiting EGFR (Table A), EGFR V3 (EGFR-Viii). The following applies: read-out: EGFR V3, potency code (IC50).
The target in assay [12] is T5, HER2 WT. Nature of the assay: Activity for inhibiting HER2 (Table B), HER2 WT.
Assay [13] addresses T7, HER2 YVMA (Homo sapiens, UniProt P04626, INS775YVMA).
T7 construct: expressed in transfected cells; host or cells: BaF3 (murine pro-B)
Nature of the assay: BaF3 cell proliferation assay, HER2 YVMA (Table B). The conditions noted are these: potency code, 3 days, CellTiterGlo, read-out: HER2 YVMA (Activity for Inhibiting HER2).

For assay [14], the target named is T7, HER2 YVMA. The assay is described as follows: Activity for inhibiting HER2 (Table B), HER2 YVMA. The following applies: read-out: HER2 YVMA, potency code (IC50). The procedure: as §3
[15] abbreviates: Table B, read-out: HER2 WT, potency code (IC50).
[16] abbreviates: text lists of compounds, read-out: IC50 value for inhibiting wild-type HER2.

pIC50: −log10 of the molar value.

T6 sequence (P00533 with tags, fused parts or gaps DELINS30-297G): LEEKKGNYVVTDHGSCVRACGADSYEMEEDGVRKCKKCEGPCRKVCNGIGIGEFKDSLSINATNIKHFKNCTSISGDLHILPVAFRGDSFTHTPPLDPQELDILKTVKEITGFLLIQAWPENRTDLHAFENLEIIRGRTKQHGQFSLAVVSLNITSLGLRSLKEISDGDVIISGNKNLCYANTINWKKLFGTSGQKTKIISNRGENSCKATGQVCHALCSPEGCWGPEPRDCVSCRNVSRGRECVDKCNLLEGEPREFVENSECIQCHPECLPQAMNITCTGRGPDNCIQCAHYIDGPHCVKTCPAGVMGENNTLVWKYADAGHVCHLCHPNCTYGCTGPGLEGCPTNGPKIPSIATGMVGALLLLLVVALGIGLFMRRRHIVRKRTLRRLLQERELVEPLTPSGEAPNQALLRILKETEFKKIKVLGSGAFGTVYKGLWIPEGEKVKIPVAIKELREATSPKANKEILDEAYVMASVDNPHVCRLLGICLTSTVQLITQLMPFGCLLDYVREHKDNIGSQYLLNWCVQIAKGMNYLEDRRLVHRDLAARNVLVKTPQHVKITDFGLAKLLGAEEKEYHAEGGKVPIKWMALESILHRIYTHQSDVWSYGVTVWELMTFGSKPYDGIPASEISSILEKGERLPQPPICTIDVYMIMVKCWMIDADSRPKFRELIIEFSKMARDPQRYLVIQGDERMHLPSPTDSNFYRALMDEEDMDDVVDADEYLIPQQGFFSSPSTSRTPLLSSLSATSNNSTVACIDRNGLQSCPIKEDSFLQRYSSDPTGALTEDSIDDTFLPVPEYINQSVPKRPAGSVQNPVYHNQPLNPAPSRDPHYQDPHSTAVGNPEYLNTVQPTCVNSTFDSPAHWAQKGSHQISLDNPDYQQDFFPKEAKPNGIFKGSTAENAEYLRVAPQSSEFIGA
T2 sequence (P04626 23-1255 S310F): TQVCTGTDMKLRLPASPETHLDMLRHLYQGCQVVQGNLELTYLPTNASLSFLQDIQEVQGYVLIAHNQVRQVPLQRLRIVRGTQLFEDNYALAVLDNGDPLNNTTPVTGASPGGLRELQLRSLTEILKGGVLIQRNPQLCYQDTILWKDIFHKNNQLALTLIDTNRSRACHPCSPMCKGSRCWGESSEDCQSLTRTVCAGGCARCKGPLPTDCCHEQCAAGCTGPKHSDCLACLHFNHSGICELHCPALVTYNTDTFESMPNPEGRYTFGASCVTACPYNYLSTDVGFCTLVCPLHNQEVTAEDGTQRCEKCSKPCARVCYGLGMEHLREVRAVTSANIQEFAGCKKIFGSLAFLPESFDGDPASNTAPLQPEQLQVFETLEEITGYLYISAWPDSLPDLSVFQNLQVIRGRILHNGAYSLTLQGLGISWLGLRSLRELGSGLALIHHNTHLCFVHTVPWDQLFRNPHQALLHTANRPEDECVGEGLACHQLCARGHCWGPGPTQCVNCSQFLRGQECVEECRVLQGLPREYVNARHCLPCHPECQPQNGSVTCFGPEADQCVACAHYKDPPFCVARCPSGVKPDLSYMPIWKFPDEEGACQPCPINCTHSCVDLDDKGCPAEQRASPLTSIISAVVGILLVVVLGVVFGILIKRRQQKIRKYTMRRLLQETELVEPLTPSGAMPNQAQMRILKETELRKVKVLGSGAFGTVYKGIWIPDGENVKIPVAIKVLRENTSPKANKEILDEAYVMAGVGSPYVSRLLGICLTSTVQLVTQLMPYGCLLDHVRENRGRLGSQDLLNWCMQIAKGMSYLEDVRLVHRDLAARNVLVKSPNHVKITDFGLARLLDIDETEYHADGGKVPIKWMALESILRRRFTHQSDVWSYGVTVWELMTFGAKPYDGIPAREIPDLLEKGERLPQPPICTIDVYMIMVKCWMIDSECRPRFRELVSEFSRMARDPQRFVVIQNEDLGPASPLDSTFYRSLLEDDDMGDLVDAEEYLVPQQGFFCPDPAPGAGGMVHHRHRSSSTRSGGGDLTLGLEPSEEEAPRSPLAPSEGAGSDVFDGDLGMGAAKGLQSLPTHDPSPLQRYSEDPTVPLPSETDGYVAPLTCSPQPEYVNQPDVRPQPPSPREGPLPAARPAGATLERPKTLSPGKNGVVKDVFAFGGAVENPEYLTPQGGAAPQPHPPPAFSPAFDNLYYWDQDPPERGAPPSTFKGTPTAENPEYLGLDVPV
T7 sequence (P04626 with tags, fused parts or gaps INS775YVMA): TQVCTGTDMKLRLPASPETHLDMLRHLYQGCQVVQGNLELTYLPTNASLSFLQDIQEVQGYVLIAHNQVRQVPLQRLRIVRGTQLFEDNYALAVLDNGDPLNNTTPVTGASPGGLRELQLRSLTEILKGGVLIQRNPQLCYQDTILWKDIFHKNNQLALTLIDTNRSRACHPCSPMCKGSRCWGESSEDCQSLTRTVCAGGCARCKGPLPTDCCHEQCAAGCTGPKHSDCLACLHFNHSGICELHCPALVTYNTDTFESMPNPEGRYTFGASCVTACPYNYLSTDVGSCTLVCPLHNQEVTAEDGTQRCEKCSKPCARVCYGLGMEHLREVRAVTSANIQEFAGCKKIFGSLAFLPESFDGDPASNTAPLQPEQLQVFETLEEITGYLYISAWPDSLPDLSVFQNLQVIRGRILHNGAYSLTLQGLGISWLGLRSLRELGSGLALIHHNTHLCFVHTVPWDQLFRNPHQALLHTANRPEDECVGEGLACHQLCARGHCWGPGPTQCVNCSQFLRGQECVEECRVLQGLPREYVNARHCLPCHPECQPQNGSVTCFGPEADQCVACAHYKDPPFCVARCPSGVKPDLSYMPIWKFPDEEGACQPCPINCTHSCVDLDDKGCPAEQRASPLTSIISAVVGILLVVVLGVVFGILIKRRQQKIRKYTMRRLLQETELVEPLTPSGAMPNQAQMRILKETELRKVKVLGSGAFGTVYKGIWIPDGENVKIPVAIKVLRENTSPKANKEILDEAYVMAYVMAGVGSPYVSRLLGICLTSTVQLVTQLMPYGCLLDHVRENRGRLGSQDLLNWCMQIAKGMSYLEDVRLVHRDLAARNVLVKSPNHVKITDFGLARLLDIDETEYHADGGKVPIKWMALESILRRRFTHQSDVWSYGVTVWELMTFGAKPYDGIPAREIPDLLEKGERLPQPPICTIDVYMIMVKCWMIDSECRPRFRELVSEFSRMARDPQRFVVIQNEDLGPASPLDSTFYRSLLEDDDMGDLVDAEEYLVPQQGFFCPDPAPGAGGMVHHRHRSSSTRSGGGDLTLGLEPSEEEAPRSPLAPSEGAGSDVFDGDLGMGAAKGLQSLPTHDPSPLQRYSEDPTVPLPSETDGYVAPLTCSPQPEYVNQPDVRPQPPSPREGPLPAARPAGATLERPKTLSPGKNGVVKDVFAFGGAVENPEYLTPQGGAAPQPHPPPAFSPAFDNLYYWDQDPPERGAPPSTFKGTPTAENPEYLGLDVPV
T3 sequence (P00533 25-1210 N540K): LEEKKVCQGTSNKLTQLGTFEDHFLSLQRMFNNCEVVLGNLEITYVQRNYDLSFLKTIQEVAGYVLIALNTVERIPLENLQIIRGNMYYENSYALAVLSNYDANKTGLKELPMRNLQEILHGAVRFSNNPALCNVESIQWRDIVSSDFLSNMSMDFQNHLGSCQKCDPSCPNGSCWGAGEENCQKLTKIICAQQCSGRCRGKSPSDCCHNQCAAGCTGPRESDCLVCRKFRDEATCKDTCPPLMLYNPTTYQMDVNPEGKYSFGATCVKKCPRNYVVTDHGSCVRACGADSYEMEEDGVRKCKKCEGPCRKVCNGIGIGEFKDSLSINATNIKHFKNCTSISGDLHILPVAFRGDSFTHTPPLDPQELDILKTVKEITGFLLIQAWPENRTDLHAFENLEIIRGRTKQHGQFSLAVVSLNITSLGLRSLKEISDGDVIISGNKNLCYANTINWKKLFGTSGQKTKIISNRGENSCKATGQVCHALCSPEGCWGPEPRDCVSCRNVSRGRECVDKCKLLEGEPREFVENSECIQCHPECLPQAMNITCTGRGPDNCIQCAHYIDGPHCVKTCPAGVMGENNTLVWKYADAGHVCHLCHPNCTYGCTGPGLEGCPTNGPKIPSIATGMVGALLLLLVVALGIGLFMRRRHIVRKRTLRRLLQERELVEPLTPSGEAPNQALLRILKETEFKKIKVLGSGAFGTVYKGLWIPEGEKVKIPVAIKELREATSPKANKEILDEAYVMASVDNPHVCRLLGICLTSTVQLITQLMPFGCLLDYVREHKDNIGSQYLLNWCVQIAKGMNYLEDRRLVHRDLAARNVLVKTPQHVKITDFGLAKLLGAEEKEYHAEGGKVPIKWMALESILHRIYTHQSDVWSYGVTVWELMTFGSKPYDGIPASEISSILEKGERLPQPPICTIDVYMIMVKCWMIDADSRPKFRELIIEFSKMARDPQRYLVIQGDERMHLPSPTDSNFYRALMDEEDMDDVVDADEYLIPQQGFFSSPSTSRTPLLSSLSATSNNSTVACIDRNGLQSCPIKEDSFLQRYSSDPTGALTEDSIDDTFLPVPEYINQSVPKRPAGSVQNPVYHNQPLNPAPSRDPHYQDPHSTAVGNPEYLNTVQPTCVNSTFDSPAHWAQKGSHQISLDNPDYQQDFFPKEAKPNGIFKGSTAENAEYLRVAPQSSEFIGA

In the case of `C=CC(=O)Nc1cc2c(Nc3ccc(OCc4ccccn4)c(Cl)c3)c(C#N)cnc2cc1OCCN1CCOCC1` [compound 11], the pIC50 in [1] was 6.30 to 6.52; in [2] it was 7.00 to 7.30; in assay [3] it was 6.30 to 6.52; in assay [4] it was 6.30 to 6.52; in assay [5], 7.00 to 7.30; in assay [6], 6.30 to 6.52. Moreover, the pIC50 in assay [7] is 7.30 to 7.52; in assay [8], 6.30 to 6.52; in assay [9], 6.30 to 6.52; in [10], 7.00 to 7.30; in assay [11], 7.00 to 7.30; in assay [12] (setting [15]), 7.30 to 7.52. The pIC50 in assay [12] (setting [16]) is at least 7.30.
For `C=CC(=O)Nc1cc2c(Nc3ccc(OCc4ccccn4)c(Cl)c3)ncnc2cc1OCC1CCCN1` (stereo not shown) [compound 13], the pIC50 in [1] is 6.52 to 6.70; in assay [2] it was 7.30 to 7.52; in assay [3], 6.30 to 6.52; in assay [4], 6.30 to 6.52; in assay [13], 6.30 to 6.52; in [5], 7.30 to 7.52. For the same compound, the pIC50 was 6.30 to 6.52 in assay [6]; 8.00 to 8.30 in assay [7]; 6.30 to 6.52 in assay [8]; 6.52 to 6.70 in assay [9]; 7.00 to 7.30 in [10]; 6.30 to 6.52 in [14]. Moreover, the pIC50 is 7.00 to 7.30 in assay [11], 8.00 to 8.30 in assay [12] (setting [15]) and at least 7.70 in [12] (setting [16]).
`C=CC(=O)Nc1cc2c(Nc3ccc(OCc4ccccn4)c(Cl)c3)ncnc2cc1O[C@@H]1CCN(C)C1` [compound 17]: the pIC50 is 7.70 to 8.00 in assay [1]; 8.00 to 8.30 in assay [2]; 6.52 to 6.70 in assay [3]; 7.52 to 7.70 in assay [4]; 7.30 to 7.52 in [13]; 8.00 to 8.30 in assay [5]. In addition, the pIC50 in assay [6] is 7.52 to 7.70; in assay [7], above 8.30; in [8], 6.52 to 6.70; in assay [9], 7.70 to 8.00; in assay [10], 7.70 to 8.00; in assay [14], 7.30 to 7.52. In addition, the pIC50 in [11] is 7.70 to 8.00; in assay [12] (setting [15]) it was above 8.30; in [12] (setting [16]) it was at least 8.30.
As for `C=CC(=O)Nc1cc2c(Nc3ccc(OCc4ccccn4)c(Cl)c3)ncnc2cc1OCCN(C)C` [compound 19], the pIC50 in assay [1] is 6.70 to 7.00; in assay [2], 7.52 to 7.70; in assay [3] it was 6.52 to 6.70; in [4] it was 6.70 to 7.00; in assay [13], 6.70 to 7.00; in assay [5], 7.52 to 7.70. In addition, the pIC50 is 6.70 to 7.00 in [6]; 8.00 to 8.30 in assay [7]; 6.52 to 6.70 in assay [8]; 6.70 to 7.00 in [9]; 7.52 to 7.70 in assay [10]; 6.70 to 7.00 in assay [14]. Further, the pIC50 in assay [11] was 7.52 to 7.70; in [12] (setting [15]) it was 8.00 to 8.30; in assay [12] (setting [16]), at least 8.00.
Regarding `C=CC(=O)Nc1cc2c(Nc3ccc(OCc4ccccn4)c(Cl)c3)ncnc2cc1OCCCN1CC2CC1CO2` (stereo not shown) [compound 20], the pIC50 was 7.70 to 8.00 in assay [1]; 7.70 to 8.00 in assay [2]; 6.52 to 6.70 in assay [3]; 7.70 to 8.00 in [4]; 7.70 to 8.00 in assay [13]; 7.70 to 8.00 in assay [5]. For the same compound, the pIC50 is 7.70 to 8.00 in assay [6]; above 8.30 in [7]; 6.52 to 6.70 in assay [8]; 7.70 to 8.00 in assay [9]; 7.52 to 7.70 in assay [10]; 7.70 to 8.00 in assay [14]. Besides, the pIC50 is 7.52 to 7.70 in [11], above 8.30 in assay [12] (setting [15]) and at least 8.00 in assay [12] (setting [16]).
For the compound `CC#CC(=O)Nc1cc2c(Nc3ccc(OCc4ccccn4)c(Cl)c3)ncnc2cc1OCCN1CCN(C)CC1` [compound 70], the pIC50 in [1] is 7.30 to 7.52; in [2], 8.00 to 8.30; in assay [3], 7.00 to 7.30; in assay [4], 7.00 to 7.30; in [13] it was 8.00 to 8.30; in assay [5], 8.00 to 8.30. In addition, the pIC50 in assay [6] is 7.00 to 7.30; in [8], 7.00 to 7.30; in assay [9] it was 7.30 to 7.52; in assay [10] it was 7.70 to 8.00; in assay [14], 8.00 to 8.30; in assay [11] it was 7.70 to 8.00.
For `C=CC(=O)Nc1cc2c(Nc3ccc(OCc4ccccn4)c(Cl)c3)ncnc2cc1C#CC(C)(C)N1CCCC1` [compound 84, N-(4-((3-chloro-4-(pyridin-2-ylmethoxy)phenyl)amino)-7-(3-methyl-3-(pyrrolidin-1-yl)but-1-yn-1-yl)quinazolin-6-yl)acrylamide], the pIC50 in [1] is 7.00 to 7.30; in assay [2], 8.00 to 8.30; in assay [3] it was 6.00 to 6.30; in [4], 7.00 to 7.30; in assay [13], 7.30 to 7.52; in assay [5], 8.00 to 8.30. Besides, the pIC50 was 7.00 to 7.30 in assay [6]; 6.00 to 6.30 in [8]; 7.00 to 7.30 in [9]; 7.52 to 7.70 in assay [10]; 7.30 to 7.52 in [14]; 7.52 to 7.70 in [11].
With `C=CC(=O)Nc1cc2c(Nc3ccc(OCc4ccccn4)c(Cl)c3)ncnc2cc1C#C[C@H]1CCN(C)C1` [compound 85, N-(4-((3-chloro-4-(pyridin-2-ylmethoxy)phenyl)amino)-7-((1-methylpyrrolidin-3-yl)ethynyl)quinazolin-6-yl)acrylamide], the pIC50 in [1] was 7.52 to 7.70; in assay [2] it was 8.00 to 8.30; in assay [3] it was 6.52 to 6.70; in [4], 7.52 to 7.70; in assay [13] it was 7.30 to 7.52; in [5] it was 8.00 to 8.30. Further, the pIC50 was 7.52 to 7.70 in assay [6]; 6.52 to 6.70 in assay [8]; 7.52 to 7.70 in assay [9]; 7.52 to 7.70 in [10]; 7.30 to 7.52 in assay [14]; 7.52 to 7.70 in [11].
Regarding `C=CC(=O)Nc1cc2c(Nc3ccc(OCc4ccccn4)c(Cl)c3)ncnc2cc1OCCC1(N(C)C)CC1` [compound 102, N-(4-((3-chloro-4-(pyridin-2-ylmethoxy)phenyl)amino)-7-(2-(1-(dimethylamino)cyclopropyl)ethoxy)quinazolin-6-yl)acrylamide], the pIC50 in [1] was 7.30 to 7.52; in assay [2], 7.52 to 7.70; in assay [3], 6.00 to 6.30; in assay [4] it was 7.00 to 7.30; in assay [13], 7.00 to 7.30; in [5], 7.52 to 7.70. Further, the pIC50 is 7.00 to 7.30 in [6]; 6.00 to 6.30 in [8]; 7.30 to 7.52 in assay [9]; 7.30 to 7.52 in assay [10]; 7.00 to 7.30 in assay [14]; 7.30 to 7.52 in assay [11].

Values taken from patent US11034672B1, “Tyrosine kinase inhibitor compositions, methods of making and methods of use” (Black Diamond Therapeutics, Inc., priority 2018, dated 2021).
